Laboratory results from PubChem BioAssay AID489041 (Sanford-Burnham Center for Chemical Genomics, 2010).
Activity calls are given as the source filed them. No rule for the calls is given here.

System: HEK-293T NF-kB luciferase reporter counterscreen, luminescence
Experiment: NF-kB reporter inhibition in HEK-293T, dose response, counter-screen for T-cell antigen receptor NF-kB inhibitors, HEK-293T cells, luminescence (AID 489041)

| Structure (SMILES) | IC50 |
| --- | --- |
| Cc1ccc2[nH]c(-c3cccc(F)c3)cc(=O)c2c1 | > 80 µM (inactive) |
| Cn1cc(/C=N/n2cnc3scc(-c4ccc(Cl)cc4)c3c2=O)c2ccccc21 | 0.22 µM |
| CC(Oc1ccc(Cl)cc1Cl)C(=O)Nc1ccncc1 (stereo not given) | 6.73 µM |
| O=C1CC(c2cc(Br)ccc2F)c2cc3c(cc2N1)CCC3 (stereo not given) | > 80 µM (inactive) |
| CCCC(=O)Nc1nc2ccc(S(=O)(=O)N3CCCCC3)cc2s1 | 3.55 µM |
| Cc1cc(-c2ccc(C)c(S(=O)(=O)N3CCN(c4ccc([N+](=O)[O-])cc4)CC3)c2)on1 | > 80 µM (inactive) |
| Cc1ccc(NC(=O)C2=C(c3ccccc3)S(=O)(=O)CCS2(=O)=O)cc1 | 8.74 µM |
| COc1ccc(-n2cc(-c3ccc(C)cc3)[n+]3c2SCC3)cc1 | 5.82 µM |
| CCOc1ccccc1NC(=O)Cn1nnc(C(=O)NCc2ccco2)c1N | 26.3 µM (inactive) |
| Cc1ccc(S(=O)(=O)NCc2ccncc2)cc1C | 15.5 µM |
| Cc1ccc(-c2cc3c(N=O)c4ccccc4c-3n[nH]2)cc1 | 0.88 µM |
| CCS(=O)(=O)c1ncc(Cl)c(C(=O)Nc2ccc(S(=O)(=O)N(C)c3ccccc3)cc2)n1 | 20.2 µM (inactive) |
| Cc1c(C(=O)N2CCOCC2)[nH]c2c1C(=O)CC(c1ccccc1Cl)C2 (stereo not given) | 13.8 µM |
| CCSc1nc2ccccc2n1C(=O)/C=C\c1ccc(OC)c(OC)c1 | 18.2 µM |
| COc1cccc(N2CCN(C(=O)c3ccc(CS(=O)c4ccccc4C)o3)CC2)c1 (stereo not given) | 8.21 µM |
| COc1ccc(NC(=O)/C(Cl)=C(/Cl)S(=O)Cc2ccccc2)cn1 (stereo not given) | 8.71 µM |
| N#C/C(=C\c1ccc(OCc2ccc(C(=O)O)cc2)cc1)C(=O)N1CCOCC1 | 4.51 µM |
| CCOc1cccc(-c2nnc3n2N=C(c2cc(OC)ccc2OC)CS3)c1 | 4.82 µM |
| C=C(C)COc1ccc(-c2n[nH]c(C)c2-c2ccc(OC)c(OC)c2)c(O)c1 | 9.37 µM |
| CCOCCOC(=O)c1[nH]c2c(c1C)C(=O)CC(c1cccs1)C2 (stereo not given) | 4.6 µM |
| CCOC(=O)c1[nH]c2c(c1C)C(=O)CC(c1ccc(F)cc1)C2 (stereo not given) | > 80 µM (inactive) |
| NS(=O)(=O)c1ccc(Sc2nc3ccccc3s2)c([N+](=O)[O-])c1 | 7.35 µM |
| O=C(Nc1ccc(Cl)c(S(=O)(=O)N2CCOCC2)c1)c1ccc(OCC2CCCO2)cc1 (stereo not given) | 3.14 µM |
| COc1ccc(CCNc2nnc(Sc3nnnn3-c3ccccc3)s2)cc1OC | 8.36 µM |
| O=C(Nc1ccc(Oc2cccnc2)nc1)c1ccc(C(F)(F)F)cc1 | 1.52 µM |
| Cc1ccc(S(=O)(=O)NCc2ccncc2)c(C)c1C | 0.3 µM |
| CC(C)c1oc(=O)cc2c1[C@@H](O)[C@H]1OC(=O)[C@@]3(C)C[C@@H](O)[C@@H](O)[C@@]2(C)C13 (stereo not given in full) | 0.75 µM |

| Structure (SMILES) | IC50 |
| --- | --- |
| Cc1nc(Nc2nc3c(c(=O)[nH]2)CCC3)nc2ccccc12 | 40.1 µM (inactive) |
| CCOC(=O)c1ccc(NC(=O)Cn2cnc3cc(C)c(C)cc32)cc1 | 0.88 µM |
| CCN(CC)c1ccc(NC(=O)c2cc(OC)cc(OC)c2)c(C)c1 | 6 µM |
| CCCOc1ccc(/C=N/Nc2cc(N3CCOCC3)ncn2)c(O)c1 | 0.38 µM |
| N#Cc1ccc(-c2cccs2)nc1SCc1cccnc1 | 0.94 µM |
| COc1ccc(-n2nnnc2-c2cccc(OC)c2)cc1 | 19.7 µM |
| Cc1ccc(C(=O)O/N=C(\N)c2ccccn2)c(Cl)c1 | 2.61 µM |
| COc1cc(C2C(C#N)=C(N)Oc3cc4c(cc32)OCO4)cc(OC)c1OC (stereo not given) | 3.86 µM |
| Cc1noc(C)c1COc1ccc(C(=O)NNC(=O)c2ccccc2F)cc1 | 30.3 µM (inactive) |
| COc1ccc(Nc2ncnc3ccc(Br)cc23)c(OC)c1 | 12 µM |
| Cc1cc(C)cc(NC(=O)c2cc(C)n(Cc3cccs3)c2C)c1 | > 80 µM (inactive) |
| CCN(CC)c1ccc2nc3ccccc3[n+](CC)c2c1 | 2.01 µM |
| CC(C)(C)c1ccc(C(=O)Nc2ccc(Oc3cccnc3)nc2)cc1 | 2.18 µM |
| O=C(O)c1ccc(-c2ccc(-c3ccccc3)cc2)s1 | 9.3 µM |
| Brc1ccc2c(c1)C(C1=NCCN1)c1ccccc1CS2 (stereo not given) | > 80 µM (inactive) |
| COC(=O)c1cn(NC(=O)c2cc([N+](=O)[O-])ccc2F)c(=O)c2ccccc12 | 4.34 µM |
| COC(=O)c1c(NC(=O)c2ccc([N+](=O)[O-])o2)sc2c1CCN(C(C)C)C2 | 51.8 µM (inactive) |
| O=C(OCCN1C(=O)c2cccc3c(N4CCOCC4)ccc(c23)C1=O)c1ccc(Cl)cc1 | 7.66 µM |
| Cc1ccc(C)c(NS(=O)(=O)c2ccc(-c3cnc(C4CC4)o3)cc2)c1 | 0.42 µM |
| CCCCCOC(=O)c1[nH]c2c(c1C)C(=O)CC(c1ccco1)C2 (stereo not given) | 0.41 µM |
| O=C(Nc1nc(-c2ccccc2)cs1)c1ccc(N2CCOCC2)c([N+](=O)[O-])c1 | 1.1 µM |
| Cc1cc(C)c(CN2CCN(C(=O)Cn3cnc4c(OCc5ccccc5)ncnc43)CC2)c(C)c1 | 2.6 µM |
| CC(=O)Nc1ccc(S(=O)(=O)N2CCCc3ccccc32)cc1 | 26.6 µM (inactive) |
| Cc1csc2sc(-c3ccnc(SCC(=O)NCc4ccccc4)n3)c(C)c12 | 3.8 µM |
| COc1cc(NS(C)(=O)=O)ccc1Nc1c2ccccc2nc2ccccc12 | > 80 µM (inactive) |
| Cc1cccc(N2CCN(C(=O)c3c(-c4ccccc4)noc3C)CC2)c1C | 11.1 µM |
| COc1cc(C(=O)N2CCN(c3cccc(C)c3C)CC2)cc(OC)c1OC | 12.5 µM |

| Structure (SMILES) | IC50 |
| --- | --- |
| Cc1oc(-c2ccc(Cl)cc2)nc1CS(=O)CC(=O)NCCCN1CCN(Cc2ccccc2)CC1 (stereo not given) | 4.13 µM |
| CCN1C/C(=C/c2ccc(OC)c(O)c2)C(=O)/C(=C/c2ccc(OC)c(O)c2)C1 | 39 µM (inactive) |
| Cc1cc(NC(=O)CSc2nc3c(sc4ccccc43)c(=O)n2CCCN2CCOCC2)n[nH]1 | 1.02 µM |
| CCCCC(=O)NC(c1ccc(N(C)C)cc1)c1ccc2cccnc2c1O (stereo not given) | > 80 µM (inactive) |
| CCC(O)C1CCN(C(=O)c2cc(COc3ccc4ncccc4c3)on2)CC1 (stereo not given) | 1.72 µM |
| Cc1ccc(C(=O)Nc2cnc3ccccc3c2)cc1 | 0.83 µM |
| COc1ccc(CC(=O)Nc2cccc(-c3nnc(-c4cccc(C)c4)o3)c2)cc1OC | 1.24 µM |
| COc1cc(C2C(C#N)=C(N)Oc3cc(N(C)C)ccc32)cc2c1OCO2 (stereo not given) | 3.56 µM |
| COc1ccc(/C=N\NC(=O)c2ccccc2F)cc1COc1ccc(F)cc1F | 8.43 µM |
| COc1ccc([C@H]2CC(=O)C=C(c3c(OC)cccc3OC)C2)cc1 | 10.2 µM |
| CSc1nc(N(C)NC(=O)c2cccc(C)c2)c2ccccc2n1 | 4.16 µM |
| CCCCCCCOc1ccc(OC(=O)c2cccnc2)cc1 | > 80 µM (inactive) |
| COc1ccc(C2=NOC(C(=O)NCc3ccc(F)cc3)C2)cc1OC (stereo not given) | 14.7 µM |
| O=C(c1cn(Cc2ccccc2)nc1-c1ccccc1)N1CCN(c2ccccn2)CC1 | > 80 µM (inactive) |
| CC(C)c1oc(=O)cc2c1[C@@H](O)[C@H]1OC(=O)[C@@]3(C)CC[C@@H](O)[C@@]2(C)C13 (stereo not given in full) | 4.59 µM |
| COc1cc(NC(=O)N2CCNC2=O)cc(C(=O)Nc2cccc(C(F)(F)F)c2)c1 | 2.17 µM |
| CCC(=O)N1c2ccc(S(=O)(=O)N3CCN(c4ccc([N+](=O)[O-])cc4)CC3)cc2CC1C (stereo not given) | > 80 µM (inactive) |
| O=C(Nc1cccc2ccccc12)OC1C=CS(=O)(=O)C1 (stereo not given) | 51.2 µM (inactive) |
| COc1cc(C2C3=C(Nc4ncnn42)c2ccccc2CC3)cc(OC)c1OC (stereo not given) | 0.83 µM |
| O=C(N=Nc1c(O)[nH]c2ccc(Br)cc12)c1ccccc1-n1cccc1 | 7.76 µM |
| CCOc1ccccc1NC(=O)CN(c1ccc(OC)cc1)S(=O)(=O)c1c(C)noc1C | 16.9 µM |
| Cc1ccc(-c2cc(C(F)F)n3ncc(C(=O)N4CCc5ccccc54)c3n2)cc1 | 9.99 µM |
| COC(=O)c1cnc(Oc2ccc(NC(=O)NC(=O)c3c(F)cccc3Cl)cc2)cc1C(F)(F)F | 25.8 µM (inactive) |
| COc1cc(-c2noc(C)c2C#Cc2ccsc2)cc(OC)c1OC | 4.06 µM |
| C#Cc1ccc([C@@H]2C=C(C(=O)N3CCN(Cc4ccccc4)CC3)O[C@H](OCCCCO)C2)cc1 | 2.32 µM |
| COC(=O)c1ccc2nc(Nc3nc4c(F)cc(F)cc4s3)sc2c1 | 0.51 µM |
| CC[C@@]1(O)C(=O)OCc2c1cc1n(c2=O)Cc2cc3c(CN(C)C)c(O)ccc3nc2-1 | 29.3 µM (inactive) |

| Structure (SMILES) | IC50 |
| --- | --- |
| COc1ccc(Nc2nc(-c3sc(C)nc3C)cs2)cc1 | 6.91 µM |
| O=C(COc1ccc(C(=O)c2ccccc2)cc1)NCc1ccc(F)cc1 | 6.31 µM |
| CCN(CC)S(=O)(=O)c1ccc(NC(=O)c2ccc(CN3CCOCC3)cc2)cc1 | 2.54 µM |
| COc1ccc2c(C)nc(Nc3nc(-c4ccccc4)cc(=O)[nH]3)nc2c1 | 1.54 µM |
| CCOC(=O)CSC1=C(C#N)C(c2ccc(C)s2)CC(=O)N1 (stereo not given) | 3.78 µM |
| COc1cc(CC(=O)OCC(=O)c2ccc3c(c2)OCCO3)cc(OC)c1OC | 0.67 µM |
| COc1ccc(C[C@H](N)C(=O)N[C@H]2[C@@H](O)[C@H](n3cnc4c(N(C)C)ncnc43)O[C@@H]2CO)cc1 | 2.64 µM |
| O=C(c1ccccc1)c1nn(-c2ccc(Cl)cc2)c(=O)cc1C(F)(F)F | 5 µM |
| CCCCCN1C=CC(=C2C(=O)c3ccccc3C2=O)C=C1 | 1.9 µM |
| COc1cc(C(=O)N/N=C/c2cc([N+](=O)[O-])cs2)cc(OC)c1OC | 1.91 µM |
| COc1ccc(/C=C2/C(=O)OCc3cc(OC)c(OC)cc32)cc1 | 12 µM |
| O=S(=O)(Nc1cccc2ncccc12)c1cccs1 | > 80 µM (inactive) |
| CC(=O)c1c(C)[nH]c(C(=O)OCC(=O)Nc2ccc(C)cc2[N+](=O)[O-])c1C | 0.79 µM |
| Nc1nc(Cl)cc(N2CCC(c3cc(-c4ccc(Cl)cc4)n[nH]3)CC2)n1 | 2.44 µM |
| O=C(Nc1nc2ccc(S(=O)(=O)N3CCCC3)cc2s1)C1CCCCC1 | 2.8 µM |
| Cc1cccc(NS(=O)(=O)c2ccc(-c3cnc(C4CC4)o3)cc2)c1 | 3.27 µM |
| Cc1ccc(Nc2nc(-c3c(C)nc4ncccn34)cs2)cc1 | 1 µM |
| COc1cc(C2c3cc4c(cc3CC3COC(=O)C32)OCO4)cc(OC)c1OC (stereo not given) | > 80 µM (inactive) |
| COc1ccc(C(=O)c2ccc(N(C)C)cc2)c(OC)c1 | 71.1 µM (inactive) |
| COc1cc(Cn2c(-c3nonc3N)nc3ccccc32)ccc1C | 1.08 µM |
| CC1(C)Cc2nc3sc4c(=O)n(CC(=O)NCc5ccccc5)cnc4c3cc2CO1 | > 80 µM (inactive) |
| CCN(CC)c1ccc2nc3ccc(N)cc3[n+](-c3ccccc3)c2c1 | 2.72 µM |
| Cc1c(C(=O)N/N=C/c2c(O)ccc3ccccc23)nnn1-c1nonc1N | > 80 µM (inactive) |
| Cc1ccc(-c2cc(-c3ccc(C)cc3)[n+](-c3ccccc3)c(-c3ccc(C)cc3)c2)cc1 | 1.1 µM |
